Experimental data taken from patent US12600724B2, “Indole alkaloid and preparation method and use thereof” (NANJING UNIVERSITY OF CHINESE MEDICINE, priority 2022, dated 2026).

What was measured:
[1] = system: STZ-induced type-1 diabetes model mice; test: Latent period of thermal pain, type-1 diabetic peripheral neuropathy mice; format: in vivo, C57BL/6J mice; conditions: type-1 mice, S26 46.8 mg/kg/day intragastric, Mean ± SD, n = 6
Method: Type-1 diabetes mice: male 8-week-old C57BL/6J mice were purchased from Beijing Vital River Laboratory Animal Technology Co., Ltd. One week after adaptive feeding, STZ (150 mg/kg) was injected intraperitoneally, and one week later, tail vein blood collection was carried out for blood sugar detection, and the mice with random blood sugar greater than 16 mmol/L were selected. Six weeks after STZ injection, the mice were divided into a control group (non-diabetic mice), a model group (DPN mice) and a S26 administration group (46.8 mg/kg/day) respectively according to body weight and blood sugar, and administrated intragastrically for four weeks continuously. A response of an animal to infrared thermal stimulation was detected weekly by an infrared plantar pain threshold detector (37370, purchased from Ugo Basile Company) before and after administration to characterize a thermal pain sensitivity of the animal. A mouse was put into a single cage equipped for the machine in advance to adapt for 20 minutes, and then plantar thermal stimulation was carried out on the mouse. […] The thermal pain sensitivity was evaluated by comparing the thermal stimulation time.

[2] = system: DRG neurons of type-1 diabetes peripheral neuropathy model mice; test: Axon growth of DRG neuron cells taken after administration, type-1 mice; format: in vivo, C57BL/6J mice
Method: Type-1 diabetes mice: male 8-week-old C57BL/6J mice were purchased from Beijing Vital River Laboratory Animal Technology Co., Ltd. One week after adaptive feeding, STZ (150 mg/kg) was injected intraperitoneally, and one week later, tail vein blood collection was carried out for blood sugar detection, and the mice with random blood sugar greater than 16 mmol/L were selected. Six weeks after STZ injection, the mice were divided into a control group (non-diabetic mice), a model group (DPN mice) and a S26 administration group (46.8 mg/kg/day) respectively according to body weight and blood sugar, and administrated intragastrically for four weeks continuously. After administration, a fresh DRG neuron of a mouse was extracted to digest into a single-cell suspension and then inoculated into a culture plate for adherent culture overnight. A β-tubulin III (Sigma) protein of the DRG neuron cells was labeled by an immunofluorescence staining method. The protein was imaged by a fluorescence microscope (Leica), and a total axon length of a single DRG neuron cell was tracked by a Neuro J plug-in in Image J software.

CC[C@@]12C=C(C(=O)NCC(=O)OCCOCCOCCOCCO)n3c4c(c5ccccc53)CCN(CCC1)[C@H]42 [Compound S26]
Latent period of thermal pain ([1]; week 0 of administration): 11.33 ± 0.67 ^ s
Latent period of thermal pain ([1]; week 1 of administration): 8.19 ± 0.69 s
Latent period of thermal pain ([1]; week 2 of administration): 6.97 ± 0.73 s
Latent period of thermal pain ([1]; week 3 of administration): 6.16 ± 1.33 s
Latent period of thermal pain ([1]; week 4 of administration): 6.38 ± 0.54 s
Total axon length ([2]; Type-1 mice, DRG neurons extracted after four weeks of S26 46.8 mg/kg/day intragastric, Mean (SD in the cell below), n = 6): 6374.12 pixel
Axon growth conditions of DRG neurons (in words, FIG. 1) ([2]; type-1 diabetes peripheral neuropathy model mice): obviously improve
